In US20060286140A1, “Implants with attached silylated therapeutic agents” (priority 2003, published 2006):

Experiments:
S. aureus = conditions: in vitro, most strains including S. aureus; cited from earlier work
E. faecalis = conditions: in vitro; cited from earlier work
E. faecium = conditions: in vitro; cited from earlier work
S. aureus (ATCC 25923) = test: Disc diffusion assay; type: cell-based; conditions: 1 μg/mL solution, 20 μL on six mm filter disk, overnight
Method: Disc Diffusion Assay. Six mm sterile filter disks can be directly placed onto a full-grown lawn of S. aureus (ATCC 25923) culture, and known volumes (20 μL) and dilutions of the eluted antibiotic can be pipetted onto the disc. After incubation overnight, the area of the resultant adjacent clear zone that is devoid of bacterial growth can be measured and compared with the area cleared by a standard series of known doses of rifampin. A 1 μg/mL solution of rifampin should give a clear zone of 4-5 cm. The lower limit of sensitivity of this assay is expected to be in the 10 ng/mL range.

Row | Compound | MIC90 (S. aureus) | activity relative to linezolid (E. faecalis) [fold] | activity relative to quinupristin-dalfopristin (E. faecalis) [fold] | activity relative to linezolid (E. faecium) [fold] | activity relative to quinupristin-dalfopristin (E. faecium) [fold] | clear zone (S. aureus (ATCC 25923))
1 | CN(C)c1cc(NC(=O)CNC(C)(C)C)c(O)c2c1C[C@H]1C[C@H]3[C@H](N(C)C)C(O)=C(C(N)=O)C(=O)[C@@]3(O)C(O)=C1C2=O [tigecyclin] | less than 0.25 mg/mL | ~8 | 32 | ~8 | 32 | –
2 | CO[C@H]1/C=C/O[C@@]2(C)Oc3c(C)c(O)c4c(O)c(c(/C=N/N5CCN(C)CC5)c(O)c4c3C2=O)NC(=O)/C(C)=C\C=C\[C@H](C)[C@H](O)[C@@H](C)[C@@H](O)[C@@H](C)[C@H](OC(C)=O)[C@@H]1C (relative stereo) [rifampin, (2S*,12Z,14E,16R*,17R*,18S*,19S*,20S*,21R*,22S*,23R*,24E)-5,6,9,17,19,21-hexahydroxy-23-methoxy-2,4,12,16,18,20,22-heptamethyl-8-[N-(4-methyl-1-piperazinyl)formimidoyl]-2,7-(epoxypentadeca[1,11,13]trienimino)naphtha[2,1-b]furan-1,11-deone 21-acetate] | – | – | – | – | – | 4-5 cm
